{"source": "ChEMBL document CHEMBL4385653", "about": "“Design, synthesis, biological evaluation of benzoyl amide derivatives containing nitrogen heterocyclic ring as potential VEGFR-2 inhibitors” (Bioorg Med Chem, 2019)", "key": {"MCF7 [1]": {"test_system": "MCF7", "experiment": "Induction of apoptosis in human MCF7 cells incubated for 24 hrs by Annexin V-FITC/PI double staining based flow cytometry analysis", "format": "functional, cell-based"}, "MCF7 [2]": {"test_system": "MCF7", "experiment": "Induction of apoptosis in human MCF7 cells at 4 uM by Annexin V-FITC/PI double staining based flow cytometry analysis", "format": "functional, cell-based", "conditions": "TDE = time-dependent effect"}, "MCF7 [3]": {"test_system": "MCF7", "experiment": "Suppression of mitochondrial membrane potential in human MCF7 cells assessed as decrease in red fluorescent cells incubated for 12 hrs by rhodamine-123 dye based flow cytometry analysis", "format": "functional, cell-based"}, "MCF7 [4]": {"test_system": "MCF7", "experiment": "Suppression of mitochondrial membrane potential in human MCF7 cells assessed as increase in green fluorescent cells incubated for 12 hrs by rhodamine-123 dye based flow cytometry analysis", "format": "functional, cell-based"}, "MCF7 [5]": {"test_system": "MCF7", "experiment": "Inhibition of cell migration of human MCF7 cells assessed as relative distance between the edges of the wound at 4 uM incubated for 24 hrs by wound healing assay (reference value: 87.55%)", "format": "functional", "parameters": "scale not given: the % may be the effect or the level left"}, "[6]": {"target": "Vascular endothelial growth factor receptor 2 (Homo sapiens, UniProt P35968)", "sequence (P35968 whole entry)": "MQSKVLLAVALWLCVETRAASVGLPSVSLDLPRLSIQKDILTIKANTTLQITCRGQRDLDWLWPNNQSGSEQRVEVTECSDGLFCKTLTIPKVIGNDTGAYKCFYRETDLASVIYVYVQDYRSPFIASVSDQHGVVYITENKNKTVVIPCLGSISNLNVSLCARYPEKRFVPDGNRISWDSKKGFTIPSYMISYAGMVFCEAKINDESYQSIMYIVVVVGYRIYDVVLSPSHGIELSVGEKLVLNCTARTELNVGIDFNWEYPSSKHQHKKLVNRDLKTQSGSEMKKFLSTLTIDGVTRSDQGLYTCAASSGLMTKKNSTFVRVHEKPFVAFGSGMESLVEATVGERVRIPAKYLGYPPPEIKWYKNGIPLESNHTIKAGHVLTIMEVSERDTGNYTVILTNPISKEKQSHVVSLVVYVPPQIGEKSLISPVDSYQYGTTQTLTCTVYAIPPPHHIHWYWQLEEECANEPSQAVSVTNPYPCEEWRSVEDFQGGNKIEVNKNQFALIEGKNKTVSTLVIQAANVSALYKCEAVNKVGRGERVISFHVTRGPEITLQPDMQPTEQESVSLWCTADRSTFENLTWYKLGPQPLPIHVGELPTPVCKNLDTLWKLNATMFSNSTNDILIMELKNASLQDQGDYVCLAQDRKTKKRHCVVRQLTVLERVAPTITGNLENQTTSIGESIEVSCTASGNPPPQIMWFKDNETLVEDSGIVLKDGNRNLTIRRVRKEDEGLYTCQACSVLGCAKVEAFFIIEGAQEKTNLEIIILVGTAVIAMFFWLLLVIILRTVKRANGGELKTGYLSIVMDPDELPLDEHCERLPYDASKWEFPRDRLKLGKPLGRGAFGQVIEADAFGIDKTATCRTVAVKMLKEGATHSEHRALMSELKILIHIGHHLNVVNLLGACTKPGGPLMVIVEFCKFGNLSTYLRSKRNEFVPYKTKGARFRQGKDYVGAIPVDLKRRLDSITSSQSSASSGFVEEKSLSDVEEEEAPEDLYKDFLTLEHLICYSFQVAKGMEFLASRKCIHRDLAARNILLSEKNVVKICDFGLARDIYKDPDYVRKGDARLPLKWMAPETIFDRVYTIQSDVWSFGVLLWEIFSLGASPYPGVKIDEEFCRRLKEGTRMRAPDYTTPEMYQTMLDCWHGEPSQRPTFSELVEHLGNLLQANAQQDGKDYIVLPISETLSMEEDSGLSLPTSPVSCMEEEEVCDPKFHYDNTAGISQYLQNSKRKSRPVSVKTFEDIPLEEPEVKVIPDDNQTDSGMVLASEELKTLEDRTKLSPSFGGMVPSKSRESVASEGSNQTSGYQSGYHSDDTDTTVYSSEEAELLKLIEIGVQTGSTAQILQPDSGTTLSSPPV", "experiment": "Inhibition of VEGFR2 (unknown origin) incubated for 30 mins by enzyme immunoassay"}, "[7]": {"target": "Epidermal growth factor receptor (Homo sapiens, UniProt P00533)", "sequence (P00533 whole entry)": "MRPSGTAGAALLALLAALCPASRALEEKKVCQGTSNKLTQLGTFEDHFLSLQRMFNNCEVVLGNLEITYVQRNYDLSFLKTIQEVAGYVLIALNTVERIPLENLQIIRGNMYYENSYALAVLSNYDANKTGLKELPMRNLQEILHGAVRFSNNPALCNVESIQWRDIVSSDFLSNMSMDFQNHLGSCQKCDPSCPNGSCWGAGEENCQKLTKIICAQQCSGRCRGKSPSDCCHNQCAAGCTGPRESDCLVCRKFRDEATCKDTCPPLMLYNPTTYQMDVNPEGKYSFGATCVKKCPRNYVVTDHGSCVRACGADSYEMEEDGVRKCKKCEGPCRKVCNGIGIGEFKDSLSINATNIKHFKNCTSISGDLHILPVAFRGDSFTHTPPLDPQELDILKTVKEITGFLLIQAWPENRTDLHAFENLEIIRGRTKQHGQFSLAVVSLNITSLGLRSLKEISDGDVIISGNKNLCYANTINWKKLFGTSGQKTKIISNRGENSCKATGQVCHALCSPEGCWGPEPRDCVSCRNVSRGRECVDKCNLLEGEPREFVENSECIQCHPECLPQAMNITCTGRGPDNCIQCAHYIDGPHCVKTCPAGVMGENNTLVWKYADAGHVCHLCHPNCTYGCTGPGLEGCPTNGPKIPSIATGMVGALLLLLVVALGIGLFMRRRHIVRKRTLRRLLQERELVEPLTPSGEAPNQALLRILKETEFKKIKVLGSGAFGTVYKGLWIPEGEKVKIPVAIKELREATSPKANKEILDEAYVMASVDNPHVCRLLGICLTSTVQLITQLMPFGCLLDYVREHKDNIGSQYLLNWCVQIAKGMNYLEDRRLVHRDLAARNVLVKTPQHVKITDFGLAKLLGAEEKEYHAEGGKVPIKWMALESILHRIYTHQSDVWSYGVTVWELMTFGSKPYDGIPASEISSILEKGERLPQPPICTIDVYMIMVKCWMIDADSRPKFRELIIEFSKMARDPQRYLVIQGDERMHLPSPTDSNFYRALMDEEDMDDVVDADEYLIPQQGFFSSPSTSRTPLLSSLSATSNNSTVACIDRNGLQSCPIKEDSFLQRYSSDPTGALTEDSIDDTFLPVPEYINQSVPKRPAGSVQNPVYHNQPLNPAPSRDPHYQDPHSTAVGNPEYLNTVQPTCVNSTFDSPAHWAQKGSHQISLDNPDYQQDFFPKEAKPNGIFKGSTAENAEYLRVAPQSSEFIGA", "experiment": "Inhibition of EGFR (unknown origin) incubated for 30 mins by enzyme immunoassay"}, "[8]": {"target": "Fibroblast growth factor receptor 1 (Homo sapiens, UniProt P11362)", "sequence (P11362 whole entry)": "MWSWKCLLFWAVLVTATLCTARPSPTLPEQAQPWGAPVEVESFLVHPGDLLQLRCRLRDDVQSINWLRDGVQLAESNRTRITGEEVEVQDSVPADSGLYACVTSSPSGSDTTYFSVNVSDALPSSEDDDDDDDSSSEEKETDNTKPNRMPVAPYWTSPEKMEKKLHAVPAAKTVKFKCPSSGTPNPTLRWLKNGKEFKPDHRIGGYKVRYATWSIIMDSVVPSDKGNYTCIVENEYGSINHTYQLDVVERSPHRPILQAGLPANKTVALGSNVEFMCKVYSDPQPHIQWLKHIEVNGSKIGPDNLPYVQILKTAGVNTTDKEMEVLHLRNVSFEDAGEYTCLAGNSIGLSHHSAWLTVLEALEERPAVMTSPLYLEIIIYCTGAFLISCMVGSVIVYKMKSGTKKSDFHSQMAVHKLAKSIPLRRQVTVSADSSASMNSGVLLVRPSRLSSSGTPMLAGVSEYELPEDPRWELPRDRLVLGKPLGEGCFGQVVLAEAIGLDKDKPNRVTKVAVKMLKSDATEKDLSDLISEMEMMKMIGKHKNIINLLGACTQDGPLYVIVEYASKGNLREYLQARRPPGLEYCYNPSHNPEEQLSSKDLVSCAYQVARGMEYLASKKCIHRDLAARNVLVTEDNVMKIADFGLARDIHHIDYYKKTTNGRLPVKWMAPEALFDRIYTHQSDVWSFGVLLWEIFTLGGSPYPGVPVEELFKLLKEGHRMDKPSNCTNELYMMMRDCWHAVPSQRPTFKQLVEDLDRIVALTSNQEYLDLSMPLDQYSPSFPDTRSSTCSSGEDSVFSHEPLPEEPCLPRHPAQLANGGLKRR", "experiment": "Inhibition of bFGFR (unknown origin) incubated for 30 mins by enzyme immunoassay"}, "[9]": {"experiment": "Inhibition of PDGFR (unknown origin) incubated for 30 mins by enzyme immunoassay", "parameters": "species or system Homo sapiens"}, "HeLa": {"test_system": "HeLa", "experiment": "Antiproliferative activity against human HeLa cells assessed as inhibition of cell proliferation incubated for 48 hrs by MTT assay", "format": "functional, cell-based"}, "MCF7 [10]": {"test_system": "MCF7", "experiment": "Antiproliferative activity against human MCF7 cells assessed as inhibition of cell proliferation incubated for 48 hrs by MTT assay", "format": "functional, cell-based", "conditions": "MCF7, 48 h"}, "A549": {"test_system": "A549", "experiment": "Antiproliferative activity against human A549 cells assessed as inhibition of cell proliferation incubated for 48 hrs by MTT assay", "format": "functional, cell-based", "conditions": "A549, 48 h"}, "[11]": {"experiment": "Cytotoxicity in HEK293T cells assessed as reduction in cell viability incubated for 48 hrs by MTT assay", "format": "cell-based, HEK-293T", "conditions": "human"}, "MCF7 [12]": {"test_system": "MCF7", "experiment": "Induction of apoptosis in human MCF7 cells assessed as early apoptotic cells level at 2 uM incubated for 24 hrs by Annexin V-FITC/PI double staining based flow cytometry analysis (reference value: 6.37%)", "format": "functional"}, "MCF7 [13]": {"test_system": "MCF7", "experiment": "Induction of apoptosis in human MCF7 cells assessed as late apoptotic cells level at 2 uM incubated for 24 hrs by Annexin V-FITC/PI double staining based flow cytometry analysis (reference value: 10.1%)", "format": "functional"}, "MCF7 [14]": {"test_system": "MCF7", "experiment": "Induction of apoptosis in human MCF7 cells assessed as late necrotic cells level at 2 uM incubated for 24 hrs by Annexin V-FITC/PI double staining based flow cytometry analysis (reference value: 1.49%)", "format": "functional"}, "MCF7 [15]": {"test_system": "MCF7", "experiment": "Induction of apoptosis in human MCF7 cells assessed as viable cells level at 4 uM incubated for 24 hrs by Annexin V-FITC/PI double staining based flow cytometry analysis (reference value: 82%)", "format": "functional"}, "MCF7 [16]": {"test_system": "MCF7", "experiment": "Induction of apoptosis in human MCF7 cells assessed as late apoptotic cells level at 4 uM incubated for 24 hrs by Annexin V-FITC/PI double staining based flow cytometry analysis (reference value: 10.1%)", "format": "functional"}, "MCF7 [17]": {"test_system": "MCF7", "experiment": "Induction of apoptosis in human MCF7 cells assessed as late necrotic cells level at 4 uM incubated for 24 hrs by Annexin V-FITC/PI double staining based flow cytometry analysis (reference value: 1.49%)", "format": "functional"}, "MCF7 [18]": {"test_system": "MCF7", "experiment": "Induction of apoptosis in human MCF7 cells assessed as viable cells level at 8 uM incubated for 24 hrs by Annexin V-FITC/PI double staining based flow cytometry analysis (reference value: 82%)", "format": "functional"}, "MCF7 [19]": {"test_system": "MCF7", "experiment": "Induction of apoptosis in human MCF7 cells assessed as early apoptotic cells level at 8 uM incubated for 24 hrs by Annexin V-FITC/PI double staining based flow cytometry analysis (reference value: 6.37%)", "format": "functional"}, "MCF7 [20]": {"test_system": "MCF7", "experiment": "Induction of apoptosis in human MCF7 cells assessed as late necrotic cells level at 8 uM incubated for 24 hrs by Annexin V-FITC/PI double staining based flow cytometry analysis (reference value: 1.49%)", "format": "functional"}, "MCF7 [21]": {"test_system": "MCF7", "experiment": "Induction of apoptosis in human MCF7 cells assessed as viable cells level at 4 uM incubated for 12 hrs by Annexin V-FITC/PI double staining based flow cytometry analysis (reference value: 89%)", "format": "functional"}, "MCF7 [22]": {"test_system": "MCF7", "experiment": "Induction of apoptosis in human MCF7 cells assessed as late apoptotic cells level at 4 uM incubated for 12 hrs by Annexin V-FITC/PI double staining based flow cytometry analysis (reference value: 3.1%)", "format": "functional"}, "MCF7 [23]": {"test_system": "MCF7", "experiment": "Induction of apoptosis in human MCF7 cells assessed as viable cells level at 4 uM incubated for 24 hrs by Annexin V-FITC/PI double staining based flow cytometry analysis (reference value: 89%)", "format": "functional"}, "MCF7 [24]": {"test_system": "MCF7", "experiment": "Induction of apoptosis in human MCF7 cells assessed as early apoptotic cells level at 4 uM incubated for 24 hrs by Annexin V-FITC/PI double staining based flow cytometry analysis (reference value: 1.06%)", "format": "functional"}, "MCF7 [25]": {"test_system": "MCF7", "experiment": "Induction of apoptosis in human MCF7 cells assessed as late necrotic cells level at 4 uM incubated for 24 hrs by Annexin V-FITC/PI double staining based flow cytometry analysis (reference value: 6.88%)", "format": "functional"}, "MCF7 [26]": {"test_system": "MCF7", "experiment": "Induction of apoptosis in human MCF7 cells assessed as early apoptotic cells level at 4 uM incubated for 36 hrs by Annexin V-FITC/PI double staining based flow cytometry analysis (reference value: 1.06%)", "format": "functional"}, "MCF7 [27]": {"test_system": "MCF7", "experiment": "Induction of apoptosis in human MCF7 cells assessed as late apoptotic cells level at 4 uM incubated for 36 hrs by Annexin V-FITC/PI double staining based flow cytometry analysis (reference value: 3.1%)", "format": "functional"}, "MCF7 [28]": {"test_system": "MCF7", "experiment": "Induction of apoptosis in human MCF7 cells assessed as late necrotic cells level at 4 uM incubated for 36 hrs by Annexin V-FITC/PI double staining based flow cytometry analysis (reference value: 6.88%)", "format": "functional"}, "MCF7 [29]": {"test_system": "MCF7", "experiment": "Suppression of mitochondrial membrane potential in human MCF7 cells assessed as red fluorescent cells level at 2 uM incubated for 12 hrs by rhodamine-123 dye based flow cytometry analysis (reference value: 99.71%)", "format": "functional"}, "MCF7 [30]": {"test_system": "MCF7", "experiment": "Suppression of mitochondrial membrane potential in human MCF7 cells assessed as green fluorescent cells level at 2 uM incubated for 12 hrs by rhodamine-123 dye based flow cytometry analysis (reference value: 0.29%)", "format": "functional"}, "MCF7 [31]": {"test_system": "MCF7", "experiment": "Suppression of mitochondrial membrane potential in human MCF7 cells assessed as red fluorescent cells level at 4 uM incubated for 12 hrs by rhodamine-123 dye based flow cytometry analysis (reference value: 99.71%)", "format": "functional"}, "MCF7 [32]": {"test_system": "MCF7", "experiment": "Suppression of mitochondrial membrane potential in human MCF7 cells assessed as green fluorescent cells level at 4 uM incubated for 12 hrs by rhodamine-123 dye based flow cytometry analysis (reference value: 0.29%)", "format": "functional"}, "MCF7 [33]": {"test_system": "MCF7", "experiment": "Suppression of mitochondrial membrane potential in human MCF7 cells assessed as red fluorescent cells level at 8 uM incubated for 12 hrs by rhodamine-123 dye based flow cytometry analysis (reference value: 99.71%)", "format": "functional"}, "MCF7 [34]": {"test_system": "MCF7", "experiment": "Suppression of mitochondrial membrane potential in human MCF7 cells assessed as green fluorescent cells level at 8 uM incubated for 12 hrs by rhodamine-123 dye based flow cytometry analysis (reference value: 0.29%)", "format": "functional"}}}
{"smiles": "Cc1ccc(-n2cc(NC(=O)c3cccc(NS(=O)(=O)c4ccc(Cl)cc4)c3)cn2)cc1", "values": [{"measurement": "Activity", "setting": "MCF7 [1]", "value": "Dose-dependent effect"}, {"measurement": "Activity", "setting": "MCF7 [2]", "value": "Tde"}, {"measurement": "Activity", "setting": "MCF7 [3]", "value": "Dose-dependent effect"}, {"measurement": "Activity", "setting": "MCF7 [4]", "value": "Dose-dependent effect"}, {"measurement": "Activity", "setting": "MCF7 [5]", "value": 77.3, "unit": "%"}, {"measurement": "IC50", "setting": "[6]", "value": 0.34, "unit": "µM"}, {"measurement": "IC50", "setting": "[7]", "value": 8.77, "unit": "µM"}, {"measurement": "IC50", "setting": "[8]", "value": 17.2, "unit": "µM"}, {"measurement": "IC50", "setting": "[9]", "value": 14.1, "unit": "µM"}, {"measurement": "IC50", "setting": "HeLa", "value": 4.57, "unit": "µM"}, {"measurement": "IC50", "setting": "MCF7 [10]", "value": 1.08, "unit": "µM"}, {"measurement": "IC50", "setting": "A549", "value": 15.6, "unit": "µM"}, {"measurement": "CC50 at 48 h", "setting": "[11]", "value": 110, "unit": "µM"}, {"measurement": "Activity", "setting": "MCF7 [12]", "value": 9.7, "unit": "%"}, {"measurement": "Activity", "setting": "MCF7 [13]", "value": 17.7, "unit": "%"}, {"measurement": "Activity", "setting": "MCF7 [14]", "value": 2.32, "unit": "%"}, {"measurement": "Activity", "setting": "MCF7 [15]", "value": 64, "unit": "%"}, {"measurement": "Activity", "setting": "MCF7 [16]", "value": 21.4, "unit": "%"}, {"measurement": "Activity", "setting": "MCF7 [17]", "value": 2.62, "unit": "%"}, {"measurement": "Activity", "setting": "MCF7 [18]", "value": 41.4, "unit": "%"}, {"measurement": "Activity", "setting": "MCF7 [19]", "value": 9.62, "unit": "%"}, {"measurement": "Activity", "setting": "MCF7 [20]", "value": 3.76, "unit": "%"}, {"measurement": "Activity", "setting": "MCF7 [21]", "value": 65.6, "unit": "%"}, {"measurement": "Activity", "setting": "MCF7 [22]", "value": 11.3, "unit": "%"}, {"measurement": "Activity", "setting": "MCF7 [23]", "value": 58.5, "unit": "%"}, {"measurement": "Activity", "setting": "MCF7 [24]", "value": 21.6, "unit": "%"}, {"measurement": "Activity", "setting": "MCF7 [25]", "value": 1.14, "unit": "%"}, {"measurement": "Activity", "setting": "MCF7 [26]", "value": 30.4, "unit": "%"}, {"measurement": "Activity", "setting": "MCF7 [27]", "value": 20.9, "unit": "%"}, {"measurement": "Activity", "setting": "MCF7 [28]", "value": 1.03, "unit": "%"}, {"measurement": "Activity", "setting": "MCF7 [29]", "value": 87.6, "unit": "%"}, {"measurement": "Activity", "setting": "MCF7 [30]", "value": 12.4, "unit": "%"}, {"measurement": "Activity", "setting": "MCF7 [31]", "value": 80.6, "unit": "%"}, {"measurement": "Activity", "setting": "MCF7 [32]", "value": 19.4, "unit": "%"}, {"measurement": "Activity", "setting": "MCF7 [33]", "value": 62.85, "unit": "%"}, {"measurement": "Activity", "setting": "MCF7 [34]", "value": 37.15, "unit": "%"}]}
